Tested on: Pediculus capitis
Test: Test 3: comparison of Example 1 formulation with 100% cyclomethicone spray, head louse mortality
Assay type: in vivo
Conditions: after 24 hours
Procedure: A comparison test was also carried out between the formulation of Example 1, a compressed air spray similar to that described in Example 1, but containing 100% of cyclomethicone and a control composed of water.
Head lice were obtained from volunteer children using the same procedures outlined above for test 1.
The lice were distributed in groups of twenty onto squares of open mesh nylon gauze as a support substrate. Each group was placed on 90 millimetre plastic Petri dish.
Each square (4 cm^2) of gauze with the lice attached was then massaged with approx. 5 ml of the formulation to be tested. This was done on the dry gauze so that the formulations could be used neat. The formulations were then left exposed to the air for the specified exposure time.
After the lice had been exposed to the formulation to be tested for a given exposure time, water was added to the gauze, together with approx. 1 ml of shampoo and the gauze was massaged once more to produce a satisfactory foam. The gauze was then rinsed three times with 250 ml of warm tap water (34° C.) poured over and through the gauze squares. The gauze was then blotted dry with medical wipe tissue and incubated under normal maintenance conditions in clean plastic Petri dishes of appropriate dimensions until the results were recorded. […]

Structure (SMILES): CC(=O)Oc1c(C)c(C)c2c(c1C)CCC(C)(CCC[C@H](C)CCC[C@H](C)CCCC(C)C)O2 (stereo partly drawn) [vitamin E acetate, d,l-alpha-Tocopherol acetate]
- effect on the lice (inferred from Example 1 vs 100% cyclomethicone spray): significant effect

— patent US20110165094A1, “USE OF VITAMIN E OR DERIVATIVES THEREOF FOR THE CONTROL OF ARTHROPODS” (BIO.LO.GA S.R.L., priority 2008, published 2011)
